Laboratory results as given in patent publication US20220041616A1, “SPIRO COMPOUND AND MEDICAL USES THEREOF” (The National Institutes of Pharmaceutical R&D Co., Ltd., priority 2018, published 2022).

What follows are compounds tested against T1, Pyruvate Carboxylase (PC) (Bos taurus, UniProt Q29RK2) (assay: In vitro inhibition of pyruvate carboxylase (PC) activity, coupling method). Conditions: top concentration 50 μM.
T1 construct: purchased Sigma
T1 sequence (Q29RK2 21-1178): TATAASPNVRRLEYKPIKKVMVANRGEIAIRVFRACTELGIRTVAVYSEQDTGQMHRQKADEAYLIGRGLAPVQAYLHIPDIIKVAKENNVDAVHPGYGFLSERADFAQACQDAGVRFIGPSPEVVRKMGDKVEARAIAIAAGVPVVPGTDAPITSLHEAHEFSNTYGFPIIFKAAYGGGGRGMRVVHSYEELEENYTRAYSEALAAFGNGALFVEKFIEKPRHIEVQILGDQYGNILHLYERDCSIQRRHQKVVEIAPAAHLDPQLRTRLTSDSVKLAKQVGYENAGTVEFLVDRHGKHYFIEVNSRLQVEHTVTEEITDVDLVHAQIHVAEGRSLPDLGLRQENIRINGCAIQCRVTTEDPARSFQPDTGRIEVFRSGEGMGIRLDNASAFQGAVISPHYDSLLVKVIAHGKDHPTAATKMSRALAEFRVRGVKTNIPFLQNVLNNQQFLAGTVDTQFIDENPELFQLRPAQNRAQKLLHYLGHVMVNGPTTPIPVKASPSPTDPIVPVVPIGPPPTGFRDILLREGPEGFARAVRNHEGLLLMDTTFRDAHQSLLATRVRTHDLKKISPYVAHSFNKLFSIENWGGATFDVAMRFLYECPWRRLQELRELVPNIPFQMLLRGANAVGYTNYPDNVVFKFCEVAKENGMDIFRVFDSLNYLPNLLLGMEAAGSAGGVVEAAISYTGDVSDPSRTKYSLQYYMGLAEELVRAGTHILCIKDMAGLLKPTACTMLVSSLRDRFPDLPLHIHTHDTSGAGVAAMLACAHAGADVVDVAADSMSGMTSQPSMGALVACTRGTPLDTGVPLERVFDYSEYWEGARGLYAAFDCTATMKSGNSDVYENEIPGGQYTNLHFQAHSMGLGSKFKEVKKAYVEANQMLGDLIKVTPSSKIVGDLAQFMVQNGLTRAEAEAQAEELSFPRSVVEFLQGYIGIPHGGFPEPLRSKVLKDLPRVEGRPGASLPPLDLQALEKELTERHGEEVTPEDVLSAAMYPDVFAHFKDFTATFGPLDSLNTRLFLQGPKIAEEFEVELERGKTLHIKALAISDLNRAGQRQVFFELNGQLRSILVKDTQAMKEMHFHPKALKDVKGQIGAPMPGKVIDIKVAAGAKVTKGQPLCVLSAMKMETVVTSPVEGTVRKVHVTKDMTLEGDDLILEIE
Assay type: biochemical
Experimental: The in vitro analysis of the inhibitory effect of the present compound on PC activity was carried out by a coupling method. The PC reaction product oxaloacetate and β-NADH undergo a redox reaction under the catalysis of malate dehydrogenase, generating malic acid and NAD^+. Accordingly, the inhibition ability of the compound on PC can be reflected by detecting the change of absorbance value at 340 nm.
b. 65.7 μL PC enzyme reaction buffer (201 mM triethanolamine, 7.5 mM magnesium sulfate, 0.18% bovine serum albumin) was added to each well of a 96-well dilution plate (249944, Nunc), and then 1 μL of the serially diluted compound to be tested in step a was added to each well.
c. 10 μL of compound (prepared in step b) was added to each well of a 384-well test plate (3702, Corning). The reaction system with ZnCl2 at a final concentration of 500 μM was used as positive control; the reaction system with no compound but DMSO at a final concentration of 0.5% was used as negative control.
d. 10 μL of PC enzyme (Sigma, 0.15 U/ml stock solution of PC enzyme dissolved in 0.15 mM Tris-HCl pH 7.4, 0.006 mM Mg(AcO)2, 0.15% glycerol, and 0.003 mM EDTA) was added to each well of the 384-well test plate (prepared in step c), centrifuged at 1000 rpm for 1 min, and incubated at room temperature for 15 min.
e. 10 μL of substrate mixture (1.5 mM sodium pyruvate, 1.5 mM ATP, 0.15 mM acetyl-CoA, 45 mM sodium bicarbonate, 0.69 mM NADH, 3 U/ml malate dehydrogenase, 201 mM triethanolamine, 7.5 mM magnesium sulfate, and 0.18% bovine serum albumin) was added to each well of the 384-well test plate (prepared in step d), and centrifuged at 1000 rpm for 1 min. The final concentrations of each component in the PC enzymatic reaction system: 0.05 U/ml pyruvate carboxylase, 0.5 mM sodium pyruvate, 0.5 mM ATP, 15 mM sodium bicarbonate, 0.23 mM β-NADH, 1 U/ml malic acid dehydrogenase, and 0.05 mM acetyl-CoA. Test compound concentrations: 50 μM, 16.667 μM, 5.556 μM, 1.852 μM, 0.617 μM, 0.206 μM, 0.0686 μM, 0.0229 μM, 0.00763 μM, 0.00254 μM, 0.000847 μM and 0.000282 μM. The final concentration of DMSO was 0.5% (v/v).
f. The absorbance at 340 nm was read by using EnVision 2104 plate reader (Perkin Elmer) with reading every 1 min for 40 min.
GraphPad Prism 6 software was used to perform a linear fit, and the concentration of each compound and the slope of the positive and negative controls were calculated. The inhibition percentage was calculated according to the following formula: 100×[1−(compound−average value of positive control)/(average value of negative control−average value of positive control)].
IC50 of the compound was obtained using GraphPad Prism 6 software according to the following nonlinear fitting formula:
Y=Bottom+(Top−Bottom)/(1+10^((Log IC50−X)×HillSlope)), […]

IC50, > 50 µM:
COc1ccccc1C(CN1C(=O)C2(CCC(C(=O)O)C2)C(=O)c2c1sc(-c1ncco1)c2C)OC1CCOCC1 (single isomer, unassigned) [Compound 5b, 7′-(2-(2-methoxyphenyl)-2-((tetrahydro-2H-pyran-4-yl)oxy)ethyl)-3′-methyl-2′-(oxazol-2-yl)-4′,6′-dioxo-6′,7′-dihydro-4′H-spiro[cyclopentane-1,5′-thieno[2,3-b]pyridine]-3-carboxylic Acid]
COc1ccccc1[C@H](CN1c2sc(-c3ncco3)c(C)c2C(=O)[C@]2(C[C@H](C(=O)O)C2)C1=O)OC1CCOCC1 [Compound 8c, 7′-(2-(2-methoxyphenyl)-2-((tetrahydro-2H-pyran-4-yl)oxy)ethyl)-3′-methyl-2′-(oxazol-2-yl)-4′,6′-dioxo-6′,7′-dihydro-4′H-spiro[cyclobutane-1,5′-thieno[2,3-b]pyridine]-3-carboxylic Acid]
COc1ccccc1C(CN1C(=O)C2(CC(C(=O)O)C2)C(=O)c2c1sc(-c1ncco1)c2C)OC1CCOCC1 (single isomer, unassigned) [Compound 8d, 7′-(2-(2-methoxyphenyl)-2-((tetrahydro-2H-pyran-4-yl)oxy)ethyl)-3′-methyl-2′-(oxazol-2-yl)-4′,6′-dioxo-6′,7′-dihydro-4′H-spiro[cyclobutane-1,5′-thieno[2,3-b]pyridine]-3-carboxylic Acid]
COc1ccccc1C(CN1C(=O)C2(CC(C(=O)O)C2)C(=O)c2c1sc(-c1ncco1)c2C)OC1CCOCC1 (mixture of isomers) [Compound 8, 7′-(2-(2-methoxyphenyl)-2-((tetrahydro-2H-pyran-4-yl)oxy)ethyl)-3′-methyl-2′-(oxazol-2-yl)-4′,6′-dioxo-6′,7′-dihydro-4′H-spiro[cyclobutane-1,5′-thieno[2,3-b]pyridine]-3-carboxylic Acid]
